In patent US8846698B2, “Pyrrolo[2,3-d]pyrimidine tropomysin-related kinase inhibitors” (Pfizer Limited, priority 2011, dated 2014):

target: TRKA (Homo sapiens (Human), UniProt P04629); experiment: Isolated TRK enzyme assay (HTRF KinEASE-TK), TRKA; type: biochemical; settings: read-out: Trka enzyme (IC50)
Sequence (P04629 441-796): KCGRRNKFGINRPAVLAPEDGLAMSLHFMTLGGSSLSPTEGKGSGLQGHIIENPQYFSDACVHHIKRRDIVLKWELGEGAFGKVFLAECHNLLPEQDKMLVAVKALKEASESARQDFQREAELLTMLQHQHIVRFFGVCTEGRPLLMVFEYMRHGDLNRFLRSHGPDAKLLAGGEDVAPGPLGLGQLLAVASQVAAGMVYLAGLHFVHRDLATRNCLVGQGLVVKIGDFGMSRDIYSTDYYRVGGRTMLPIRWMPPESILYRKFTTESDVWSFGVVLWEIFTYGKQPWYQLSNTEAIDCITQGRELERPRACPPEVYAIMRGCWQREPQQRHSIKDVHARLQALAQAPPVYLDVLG

In order of falling IC50:
1. CC(C)n1cc(C(=O)c2cncc(NC(=O)c3ccncc3F)c2)c2cncnc21 [Example 460, 3-Fluoro-N-[5-(7-isopropyl-7H-pyrrolo[2,3-d]pyrimidine-5-carbonyl)-pyridin-3-yl]-isonicotinamide]  9800 nM
2. Cc1nc2ncccn2c1C(=O)Nc1cncc(C(=O)c2cn(C(C)C)c3ncncc23)c1 [Example 461, 2-Methyl-imidazo[1,2-a]pyrimidine-3-carboxylic acid [5-(7-isopropyl-7H-pyrrolo[2,3-d]pyrimidine-5-carbonyl)-pyridin-3-yl]-amide]  9800 nM
3. CC(C)n1cc(C(=O)c2cncc(NC(=O)c3ccc(C#N)nc3)c2)c2cncnc21 [Example 473, 6-Cyano-N-[5-(7-isopropyl-7H-pyrrolo[2,3-d]pyrimidine-5-carbonyl)-pyridin-3-yl]-nicotinamide]  7280 nM
4. Cc1nc(C)c(C(=O)Nc2cncc(C(=O)c3cn(C(C)C)c4ncncc34)c2)o1 [Example 456, 2,4-Dimethyl-oxazole-5-carboxylic acid [5-(7-isopropyl-7H-pyrrolo[2,3-d]pyrimidine-5-carbonyl)-pyridin-3-yl]-amide]  6960 nM
5. CC(C)n1cc(C(=O)c2cncc(NC(=O)c3nccn3C)c2)c2cncnc21 [Example 468, 1-Methyl-1H-imidazole-2-carboxylic acid [5-(7-isopropyl-7H-pyrrolo[2,3-d]pyrimidine-5-carbonyl)-pyridin-3-yl]-amide]  5100 nM
6. CC(C)n1cc(C(=O)c2cncc(NC(=O)c3cnn4cccnc34)c2)c2cncnc21 [Example 474, Pyrazolo[1,5-a]pyrimidine-3-carboxylic acid [5-(7-isopropyl-7H-pyrrolo[2,3-d]pyrimidine-5-carbonyl)-pyridin-3-yl]-amide]  4420 nM
7. Cc1ocnc1C(=O)Nc1cncc(C(=O)c2cn(C(C)C)c3ncncc23)c1 [Example 477, 5-Methyl-oxazole-4-carboxylic acid [5-(7-isopropyl-7H-pyrrolo[2,3-d]pyrimidine-5-carbonyl)-pyridin-3-yl]-amide]  3030 nM
8. Cc1cncc(C(=O)Nc2cncc(C(=O)c3cn(C(C)C)c4ncncc34)c2)n1 [Example 464, 6-Methyl-pyrazine-2-carboxylic acid[5-(7-isopropyl-7H-pyrrolo[2,3-d]pyrimidine-5-carbonyl)-pyridin-3-yl]-amide]  3010 nM
9. CC(C)n1cc(C(=O)c2cncc(NC(=O)c3cn(C)cn3)c2)c2cncnc21 [Example 465, 1-Methyl-1H-imidazole-4-carboxylic acid [5-(7-isopropyl-7H-pyrrolo[2,3-d]pyrimidine-5-carbonyl)-pyridin-3-yl]-amide]  2130 nM
10. CC(C)n1cc(C(=O)c2cncc(NC(=O)c3ncncc3Br)c2)c2cncnc21 [Example 472, 5-Bromo-pyrimidine-4-carboxylic acid [5-(7-isopropyl-7H-pyrrolo[2,3-d]pyrimidine-5-carbonyl)-pyridin-3-yl]-amide]  1720 nM
11. Cc1cc(C(=O)Nc2cncc(C(=O)c3cn(C(C)C)c4ncncc34)c2)no1 [Example 462, 5-Methyl-isoxazole-3-carboxylic acid [5-(7-isopropyl-7H-pyrrolo[2,3-d]pyrimidine-5-carbonyl)-pyridin-3-yl]-amide]  1320 nM
12. CC(C)n1cc(C(=O)c2cncc(NC(=O)c3cc4occc4cn3)c2)c2cncnc21 [Example 455, Furo[3,2-c]pyridine-6-carboxylic acid [5-(7-isopropyl-7H-pyrrolo[2,3-d]pyrimidine-5-carbonyl)-pyridin-3-yl]-amide]  1070 nM
13. CC(C)n1cc(C(=O)c2cncc(NC(=O)c3cnn4c3CCC4)c2)c2cncnc21 [Example 471, 5,6-Dihydro-4H-pyrrolo[1,2-b]pyrazole-3-carboxylic acid [5-(7-isopropyl-7H-pyrrolo[2,3-d]pyrimidine-5-carbonyl)-pyridin-3-yl]-amide]  751 nM
14. CC(C)n1cc(C(=O)c2cncc(NC(=O)c3cn(C)c4cnccc34)c2)c2cncnc21 [Example 457, 1-Methyl-1H-pyrrolo[2,3-c]pyridine-3-carboxylic acid [5-(7-isopropyl-7H-pyrrolo[2,3-d]pyrimidine-5-carbonyl)-pyridin-3-yl]-amide]  674 nM
15. Cc1n[nH]c2ncc(C(=O)Nc3cncc(C(=O)c4cn(C(C)C)c5ncncc45)c3)cc12 [Example 475, 3-Methyl-1H-pyrazolo[3,4-b]pyridine-5-carboxylic acid [5-(7-isopropyl-7H-pyrrolo[2,3-d]pyrimidine-5-carbonyl)-pyridin-3-yl]-amide]  643 nM
16. CC(C)n1cc(C(=O)c2cncc(NC(=O)c3cc4cscc4cn3)c2)c2cncnc21 [Example 478, Thieno[3,4-c]pyridine-6-carboxylic acid [5-(7-isopropyl-7H-pyrrolo[2,3-d]pyrimidine-5-carbonyl)-pyridin-3-yl]-amide]  587 nM
17. CC(C)n1cc(C(=O)c2cncc(NC(=O)c3ccc4cccnc4n3)c2)c2cncnc21 [Example 467, 1,8-Naphthyridine-2-carboxylic acid[5-(7-isopropyl-7H-pyrrolo[2,3-d]pyrimidine-5-carbonyl)-pyridin-3-yl]-amide]  538 nM
18. COCc1cc(C(=O)Nc2cncc(C(=O)c3cn(C(C)C)c4ncncc34)c2)no1 [Example 469, 5-Methoxymethyl-isoxazole-3-carboxylic acid [5-(7-isopropyl-7H-pyrrolo[2,3-d]pyrimidine-5-carbonyl)-pyridin-3-yl]-amide]  523 nM
19. CC(C)n1cc(C(=O)c2cncc(NC(=O)c3ccc(Cl)cn3)c2)c2cncnc21 [Example 466, 5-Chloro-pyridine-2-carboxylic acid[5-(7-isopropyl-7H-pyrrolo[2,3-d]pyrimidine-5-carbonyl)-pyridin-3-yl]-amide]  400 nM
20. CC(C)n1cc(C(=O)c2cncc(NC(=O)c3cc4n(n3)CCC4)c2)c2cncnc21 [Example 458, 5,6-Dihydro-4H-pyrrolo[1,2-b]pyrazole-2-carboxylic acid [5-(7-isopropyl-7H-pyrrolo[2,3-d]pyrimidine-5-carbonyl)-pyridin-3-yl]-amide]  213 nM
21. COc1cc(OC)nc(C(=O)Nc2cncc(C(=O)c3cn(C(C)C)c4ncncc34)c2)n1 [Example 463, 4,6-Dimethoxy-pyrimidine-2-carboxylic acid [5-(7-isopropyl-7H-pyrrolo[2,3-d]pyrimidine-5-carbonyl)-pyridin-3-yl]-amide]  186 nM
22. CC(C)n1cc(C(=O)c2cncc(NC(=O)c3nncc4ccccc34)c2)c2cncnc21 [Example 470, Phthalazine-1-carboxylic acid [5-(7-isopropyl-7H-pyrrolo[2,3-d]pyrimidine-5-carbonyl)-pyridin-3-yl]-amide]  166 nM
23. Cc1cccc2cc(C(=O)Nc3cncc(C(=O)c4cn(C(C)C)c5ncncc45)c3)nn12 [Example 476, 7-Methyl-pyrazolo[1,5-a]pyridine-2-carboxylic acid [5-(7-isopropyl-7H-pyrrolo[2,3-d]pyrimidine-5-carbonyl)-pyridin-3-yl]-amide]  65 nM
24. CC(C)n1cc(C(=O)c2cncc(NC(=O)c3csc(C4CCC4)n3)c2)c2cncnc21 [Example 459, 2-Cyclobutyl-thiazole-4-carboxylic acid [5-(7-isopropyl-7H-pyrrolo[2,3-d]pyrimidine-5-carbonyl)-pyridin-3-yl]-amide]  4.06 nM
